Experiments:
Assay type in all cases: cell-based
human TASK-1 [1] = biological target: T1, human TASK-1 (Homo sapiens, UniProt O14649); assay: Inhibition of recombinant TASK-1 in stably transfected CHO cells, KCl-induced depolarization, voltage-sensitive dye (B-2); parameters: expressed in transfected cells; host or cells: stably transfected CHO cells; settings: depolarization induced by 40 mM potassium chloride, some mean values from multiple determinations
How it was run: (§1)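 Stably transfected CHO cells loaded with a voltage-sensitive membrane potential dye. Depolarization was induced with 40 mM KCl, and compound inhibition of it was read by fluorescence. IC50 is the concentration blocking half of the KCl-induced depolarization; some values are means of multiple independent determinations.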

human TASK-3 [2] = biological target: T2, human TASK-3 (Homo sapiens, UniProt Q9NPC2); assay: Inhibition of recombinant TASK-3 in stably transfected CHO cells, KCl-induced depolarization, voltage-sensitive dye (B-2); parameters: expressed in transfected cells; host or cells: stably transfected CHO cells; settings: depolarization induced by 40 mM potassium chloride, some mean values from multiple determinations
How it was run: as §1

human TASK-1 [3] = biological target: T1, human TASK-1; assay: Two-electrode voltage clamp analysis of human TASK-1 channel in Xenopus laevis oocytes (B-1); parameters: expressed in transfected cells; host or cells: Xenopus laevis oocytes injected with cRNA; settings: Xenopus laevis oocytes injected with TASK-1 cRNA, 21-22° C.
Procedure: (§2) B-1. In Vitro Electrophysiological Analysis of the Human TASK-1 and TASK-3 Channels via Two-Electrode Voltage Clamp Technique in Xenopus laevis Oocytes
(§3) Xenopus laevis oocytes were selected as described elsewhere by way of illustration [Decher et al., FEBS Lett. 492, 84-89 (2001)]. Subsequently, the oocytes were injected with 0.5-5 ng of a cRNA solution coding for TASK-1 or TASK-3. For the electrophysiological analysis of the channel proteins expressed in the oocytes, the two-electrode voltage clamp technique [Stühmer, Methods Enzymol. 207, 319-339 (1992)] was used. The measurements were conducted as described [Decher et al., FEBS Lett. 492, 84-89 (2001)] at room temperature (21-22° C.) using a Turbo TEC 10CD amplifier (NPI), recorded at 2 kHz and filtered with 0.4 kHz. Substance administration was performed using a gravitation-driven perfusion system. Here, the oocyte is located in a measuring chamber and exposed to the solution stream of 10 ml/min The level in the measuring chamber is monitored and regulated by sucking off the solution using a peristaltic pump.

human TASK-3 [4] = biological target: T2, human TASK-3; assay: Two-electrode voltage clamp analysis of human TASK-3 channel in Xenopus laevis oocytes (B-1); parameters: expressed in transfected cells; host or cells: Xenopus laevis oocytes injected with cRNA; settings: Xenopus laevis oocytes injected with TASK-3 cRNA, 21-22° C.
Procedure: as §2, §3

human TASK-1 [5] = biological target: T1, human TASK-1; assay: Washout rate after binding to the human TASK-1 channel, two-electrode voltage clamp in Xenopus laevis oocytes (B-4); parameters: expressed in transfected cells; host or cells: Xenopus laevis oocytes injected with cRNA transcribed from the pSGEM vector; settings: TASK-1 inhibited beforehand by about 40% at the concentration of Table 3 (30-80 nM); restoration of current recorded over at least one hour
Excerpt: The washout rate is defined as the washout of a compound according to the invention from the TASK-1 channel in % h^−1, measured by means of electrophysiological analysis on TASK-1-expressing Xenopus laevis oocytes via the two-electrode voltage clamp technique according to the description in section B-4.
B-4. In Vitro Electrophysiological Analysis of the Washout Rate of Compounds After Binding to the Human TASK-1 Channel via Two-Electrode Voltage Clamp Technique in Xenopus laevis Oocytes
Xenopus laevis oocytes were obtained from animals that had been anaesthetized with tricaine. Ovaries were treated with collagenase (1 mg/ml, Worthington, type II), stored in OR2 solution (82.5 mM NaCl, 2 mM KC1, 1 mM MgCl2, 5 mM HEPES; pH 7.4) for 120 min and then kept in the ND96 standard solution (96 mM NaCl, 2 mM KC1, 1.8 mM CaCl2, 1 mM MgCl2, 5 mM HEPES; pH 7.5) with additional sodium pyruvate (275 mg/l), theophylline (90 mg/1) and gentamicin (50 mg/1) at 18° C. hTASK-1 and hTASK-3 were subcloned into the pSGEM vector, and cRNA was produced after linearization with NHEI and in vitro transcription with T7 polymerase. Oocytes were injected individually with 5-20 ng of cRNA solution that encodes hTASK-1. Standard two-electrode voltage clamp recordings [Stühmer, Methods Enzymol. 207, 319-339 (1992)] were conducted at room temperature (21-22° C.) with a Turbo-TEC-10CD amplifier (NPI) as described above [Decher et al., FEBS Lett. 492, 84-89 (2001)]. The measurement interval was 2 kHz, and the data were filtered at 0.4 kHz. Substances were applied in a gravity-driven manner via the bath solution, using ND96. In summary, Xenopus laevis oocytes were selected as described above, injected with TASK-1 cRNA and subjected to an electrophysiological analysis via the two-electrode voltage clamp technique.
The TASK-1 channels were inhibited beforehand by a value of about 40% by administration of one of the compounds of the invention. The concentrations shown in Table 3 below were established here, which had been ascertained beforehand by determining the IC50 values in question. Subsequently, the restoration of the TASK-1-related membrane current was recorded in the voltage clamp over at least one hour. This restoration is caused by the washout of the compound in question from the TASK-1 channel
At least 6 oocytes were examined for every compound. The voltage clamp measurements took a total of at least 1.5 hours (administration of the inhibitor plus at least one subsequent hour of washout measurement).

T2 sequence (Q9NPC2 whole entry): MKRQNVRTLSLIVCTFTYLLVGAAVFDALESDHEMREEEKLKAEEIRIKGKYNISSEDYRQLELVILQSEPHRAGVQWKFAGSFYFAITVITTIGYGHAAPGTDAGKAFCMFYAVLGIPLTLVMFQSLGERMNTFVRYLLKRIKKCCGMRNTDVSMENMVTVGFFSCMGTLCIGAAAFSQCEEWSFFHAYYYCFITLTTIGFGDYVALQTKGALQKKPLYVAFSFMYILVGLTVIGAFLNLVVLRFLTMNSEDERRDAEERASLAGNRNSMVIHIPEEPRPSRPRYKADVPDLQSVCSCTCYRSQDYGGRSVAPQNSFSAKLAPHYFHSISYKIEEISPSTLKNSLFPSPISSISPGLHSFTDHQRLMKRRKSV
T1 sequence (O14649 whole entry): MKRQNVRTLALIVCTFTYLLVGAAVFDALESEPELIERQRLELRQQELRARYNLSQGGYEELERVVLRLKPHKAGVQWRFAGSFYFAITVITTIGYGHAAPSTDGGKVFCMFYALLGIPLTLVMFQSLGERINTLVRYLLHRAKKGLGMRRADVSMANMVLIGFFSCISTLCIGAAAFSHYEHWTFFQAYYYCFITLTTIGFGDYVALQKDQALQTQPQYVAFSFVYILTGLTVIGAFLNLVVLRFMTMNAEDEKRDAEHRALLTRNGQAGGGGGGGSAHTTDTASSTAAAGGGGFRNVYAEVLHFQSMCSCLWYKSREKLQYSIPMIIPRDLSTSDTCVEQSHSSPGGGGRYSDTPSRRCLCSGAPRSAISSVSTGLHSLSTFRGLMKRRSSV

Row | Structure (SMILES) | IC50 (human TASK-1 [1]) [nM] | IC50 (human TASK-3 [2]) [nM] | IC50 (human TASK-1 [3]) [nM] | IC50 (human TASK-3 [4]) [nM] | Washout rate (human TASK-1 [5]) [% h^−1]
1 | COc1ccc(F)c(C(=O)N2CC3CCC2CN3Cc2c(-c3ccc(C(C)C)nc3)nc3ccccn23)n1 (single isomer, unassigned) [Example 126, (3-Fluoro-6-methoxypyridin-2-yl)(5-{[2-(6-isopropylpyridin-3-yl)imidazo[1,2-a]pyridin-3-yl]methyl}-2,5-diazabicyclo[2.2.2]oct-2-yl)methanone] | 17900 | 713 | 127 ± 8.5 | 714.2 ± 0.9 | 
2 | COc1cccc(C(=O)N2C[C@@H]3CC[C@H]2CN3Cc2c(-c3ccc(Cl)cc3)nc3ccccn23)n1 (single isomer, unassigned; enantiomer 1) [Example 21] | 240 | 60 | 27.3 ± 5.4 | 16.3 ± 0.9 | 40
3 | COc1cccc(C(=O)N2CC3CCC2CN3Cc2c(-c3ccc(Cl)cn3)nc3ccccn23)n1 (single isomer, unassigned; enantiomer 1) [Example 26, (−)-(5-{[2-(5-Chloropyridin-2-yl)imidazo[1,2-a]pyridin-3-yl]methyl}-2,5-diazabicyclo[2.2.2]oct-2-yl)(6-methoxypyridin-2-yl)methanone (enantiomer 1)] | 690 | 42 | 54 ± 16.1 | 12 ± 3.3 | 17
4 | COc1cccc(C(=O)N2C3COCC2CN(Cc2c(-c4ccc(Cl)cc4)nc4ccccn24)C3)n1 [Example 29, (7-{[2-(4-Chlorophenyl)imidazo[1,2-a]pyridin-3-yl]methyl}-3-oxa-7,9-diazabicyclo[3.3.1]non-9-yl)(6-methoxypyridin-2-yl)methanone] | 460 | 50 |  |  | 17
5 | COc1cccc(C(=O)N2C3CCC2CN(Cc2c(-c4ccc(Cl)cn4)nc4ccccn24)C3)n1 [Example 33, (3-{[2-(5-Chloropyridin-2-yl)imidazo[1,2-a]pyridin-3-yl]methyl}-3,8-diazabicyclo[3.2.1]oct-8-yl)(6-methoxypyridin-2-yl)methanone] | 140 | 26 |  |  | 55
6 | COc1cccc(C(=O)N2C[C@H]3CC[C@@H]2CN3Cc2c(-c3ccc(Cl)cc3)nc3ccccn23)n1 [Example 34] | 855 | 84 | 18.6 ± 4.3 | 10.3 ± 0.9 | 
7 | O=C(C1CCCC1)N1CC2CCC(C1)N2Cc1c(-c2ccc(Cl)cc2)nc2ccccn12 [Example 86] | 331 | 126 | 17.1 ± 3.5 | 58.4 ± 12.1 | 
8 | COc1cccc(C(=O)N2CC3CCC(C2)N3Cc2c(-c3ccc(Cl)cc3)nc3ccccn23)n1 [Example 92] | 895 | 29 | 13.5 ± 1.2 | 5.9 ± 1.8 | 
9 | O=C(c1ccccc1F)N1C2CCC1CN(Cc1c(-c3ccc(Cl)cc3)nc3ccccn13)C2 [Example 102] | 277 | 56 | 8.7 ± 3.6 | 4.3 ± 3.5 | 
10 | COc1cccc(C(=O)N2C3CCC2CN(Cc2c(-c4ccc(Cl)cc4)nc4ccccn24)C3)n1 [Example 104] | 255 | 32 | 60.7 ± 12 | 4.2 ± 1 | 

Reference: patent US20210024545A1, “SUBSTITUTED DIAZAHETERO-BICYCLIC COMPOUNDS AND THEIR USE” (Bayer Aktiengesellschaft, priority 2016, published 2021)
